Measured values published in paper PMC9354705, “Characterization of TR‐107, a novel chemical activator of the human mitochondrial protease ClpP” (Pharmacology Research & Perspectives, 2022).
Read-outs that look alike come from different tables or passages of the source.

Assays:
SUM159 cells = assay: Cell viability (total cell count, Hoechst stain) in SUM159 cells; assay type: cell-based; details: Homo sapiens, WT cells, 72 h, mean N = 3
Description: Human TNBC cell line SUM159 was a generous gift from Dr. Gary Johnson (the University of North Carolina at Chapel Hill). MDA‐MB‐231 (WT and CLPP‐KO) cells were provided by Dr. Stanley Lipkowitz (National Cancer Institute). MDA‐MB‐231 cells were cultured in RPMI‐1640 media (Gibco, 11875‐093) supplemented with 10% fetal bovine serum (FBS; VWR‐Seradigm, 97068‐085), and 1% antibiotic–antimycotic (anti/anti; ThermoFisher Scientific, 15240062). SUM159 cells were cultured in Dulbecco's modified Eagle's medium: Nutrient Mixture F‐12 (DMEM/F12; Gibco, 11330‐032) supplemented with 5% FBS, 5 μg/ml insulin (Gibco, 12585014), 1 μg/ml hydrocortisone, and 1% anti/anti. Cells were maintained at 5% CO2 and 37°C and periodically tested for mycoplasma.
(§1) Total cell counting assays were performed by seeding MDA‐MB‐231 cells (WT and ClpP‐KO; 4000 cells/well) or SUM159 (WT and ClpP‐KO; 1000 cells/well) in a 96‐well plate (Perkin Elmer, 6005050) and allowed to adhere overnight. The growth medium was then aspirated and replaced with 100 μl of growth medium supplemented with the drug at concentrations indicated in the figure or figure legends. Cells treated with vehicle control (0.1% DMSO, Sigma‐Aldrich D2650) were used as a negative control in all experiments, and cells were incubated with drug‐containing media for 24, 48, or 72 h as indicated in figure legends. Media was then aspirated and replaced with 100 μl Dulbecco's phosphate‐buffered saline (DPBS Gibco, 14190‐144) containing 1 μg/ml Hoechst stain (ThermoFischer Scientific, H3570) and allowed to incubate at 37°C for 30 min. The total cell number was then quantified using the Celigo Imaging Cytometer (Nexcelom).

MDA‐MB‐231 cells = assay: Mitochondrial respiration analysis (Seahorse XF); assay type: cell-based, human; details: 24 h
Description: Cellular oxygen consumption and extracellular acidification rates (OCR and ECAR, respectively) were measured using Seahorse XFe96 (Agilent). MDA‐MB‐231 cells were plated (15 000 cells/well) in Seahorse XF96 plates (Agilent, 102416‐100) and allowed to adhere overnight. Cells were then treated with 25 or 50 nM TR‐107 for 24 h. On the day of Seahorse XF analysis, the growth medium was replaced with an XF base medium (Agilent, 103575‐100) supplemented with appropriate concentrations of TR‐107. After measurement of basal OCR/ECAR, 1 μM Oligomycin, 1 μM FCCP, and 1 μM Rotenone/Antimycin A (Agilent, 103015‐100) were added at indicated time points. OCR/ECAR were measured every 6.5 min for 73 min.

[1] = Pharmacokinetic analysis in ICR mice; assay type: in vivo, mouse; details: male, mouse, plasma, ICR mice
Description: Samples were placed in tubes containing heparin sodium and stored on ice until centrifuged. Blood samples were centrifuged at 6800g for 6 min at 2–8°C within 1 h following sample collection and stored at −80°C. Proteins from plasma sample aliquots (20 μl) were precipitated by the addition of MeOH (400 μl) containing an internal standard (tolbutamide,100 ng/ml), vortexed for 1 min, and centrifuged at 18 000g for 7 min. The supernatant (200 μl) was transferred to 96 well plates for analysis.
Analysis of samples was conducted as follows. […] The PK parameters including Area Under the Curve (AUC[0–∞]) elimination half‐life (t 1/2), maximal plasma concentration (C max), and oral bioavailability (F%) were analyzed by noncompartmental methods.

[2] = tested on: MDA‐MB‐231 or SUM159 cells; assay: Caspase‐3/7 activity assay and PARP cleavage; assay type: cell-based, human
Description: […]. The samples were collected in lysis buffer (50 mM HEPES [pH: 7.4], 5 mM CHAPS, and 5 mM DTT), and caspase activity was measured by monitoring fluorescence (ex/em: 360/460 nm) using a SpectraMax i3x (Molecular Devices).

[3] = molecular target: purified recombinant human ClpP (Homo sapiens, UniProt Q16740); assay: In vitro ClpP activity assay (casein‐FITC degradation); assay type: biochemical; details: relative to DMSO, read-out: EC50 (nM) ClpP activation
Description: Measurement of in vitro activity of purified recombinant human ClpP was performed with a slight modification to the method previously described.[46] Briefly, ClpP activity was measured through the degradation of casein‐FITC (Sigma‐Aldrich, C0528) in the presence of indicated compounds. […] Enzyme and compounds were mixed and incubated in assay buffer for 30 min before adding casein‐FITC substrate. […] Linear slope of fluorescence signal was used to measure ClpP activity and normalized to DMSO control, expressed as RFU/h.

[4] = Protein binding to plasma proteins (equilibrium dialysis); assay type: in vitro ADME; details: mouse plasma, read-out: serum‐free fraction
Description: Protein‐binding studies were performed by Eurofins Panlabs, Inc. This assay utilizes equilibrium dialysis in a microplate format, as previously described.[47] Briefly, this analysis is used to determine the bound and unbound fraction of the drug and calculate the percentage of the test compound binding to murine plasma proteins.

[5] = tested on: MDA‐MB‐231 or SUM159 cells; assay: Time‐course total cell count in MDA‐MB‐231 or SUM159 cells; assay type: cell-based, human; details: up to 72 h, both cell lines, vs vehicle control
Description: as §1

[6] = tested on: MDA‐MB‐231 and SUM159 cells; assay: Immunoblotting for mitochondrial proteins; assay type: cell-based, human
Description: Cell lysates were clarified and immunoblotted as described earlier.[45] Membranes were incubated with primary antibodies (Appendix S1) diluted 1:1000 in 1% fish gelatin (Sigma‐Aldrich, G7041)/TBST overnight at 4°C, removed, washed 3 × 5 min in TBST, and placed in their respective 2° antibodies (1:10 000 dilution in 5% milk/TBST) for 1 h. […] Acquired images were processed/quantified using Image Lab software (BioRad) or Image Studio Lite (LI‐COR).

[7] = 100 nM TR‐107, 150 nM TR‐57, or 10 μM ONC201

Chain of purified recombinant human ClpP (Q16740 57-277): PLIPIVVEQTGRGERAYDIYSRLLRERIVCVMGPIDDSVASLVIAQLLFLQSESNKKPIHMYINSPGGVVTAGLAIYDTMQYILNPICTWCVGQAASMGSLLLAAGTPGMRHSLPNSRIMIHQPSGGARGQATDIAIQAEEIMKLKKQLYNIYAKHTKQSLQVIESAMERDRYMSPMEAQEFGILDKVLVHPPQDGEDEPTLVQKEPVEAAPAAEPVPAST

**Q.** With N#Cc1cccc(CN2CCc3ncn(Cc4ccc(Cl)cc4)c(=O)c3C2)c1 [TR‐107] as the compound, how does the IC50 (SUM159 cells) read?
**A.** Its IC50 is 12 nM.

**Q.** And the “decline in oxygen consumption rate (OCR)” value (MDA‐MB‐231 cells; ClpP‐KO MDA‐MB‐231, 25, 50 nM)?
**A.** Its value is “not observed”.

**Q.** And the “extracellular acidification (ECAR)” value (MDA‐MB‐231 cells; MDA‐MB‐231, 25, 50 nM)?
**A.** Its value is “dose‐dependent increase”.

**Q.** And the “oxygen consumption rate (OCR)” value (MDA‐MB‐231 cells; WT MDA‐MB‐231, 25, 50 nM)?
**A.** The value was “dose‐dependent decline”.

**Q.** What about the AUC ([1]; po, 10 mg/kg orally, read-out: exposure (AUC)) of the same compound?
**A.** Its AUC is 2360 ng·h/mL.

**Q.** What about the AUC(0-inf) ([1]; 10 mg/kg oral) of the same compound?
**A.** Its AUC(0-inf) is 2360 ng·h/mL.

**Q.** And the Cmax ([1]; 10 mg/kg oral, read-out: C max)?
**A.** Its Cmax is 3.7 µM.

**Q.** What about the Cmax ([1]; 10 mg/kg oral, read-out: C max (mg/ml)) of the same compound?
**A.** Its Cmax is 0.00144 mg/mL.

**Q.** And the half-life ([1]; 10 mg/kg oral, read-out: T 1/2 (converted))?
**A.** Its half-life is 54 min.

**Q.** What about the “caspase‐3/7 activity” value ([2]; 24 h, 10 μM ONC201, 150 nM TR‐57, 100 nM TR‐107, 100 nM staurosporine) of the same compound?
**A.** Its value is “no increase”.

**Q.** And the PARP cleavage ([2]; data not shown)?
**A.** Its PARP cleavage is “no increase”.

**Q.** What about the EC50 [3] of the same compound?
**A.** Its EC50 is 140 nM.

**Q.** What about the fraction unbound [4] of the same compound?
**A.** Its fraction unbound is 0.1.

**Q.** What about the “concentrations inhibiting the increase in cell number” value [5] of the same compound?
**A.** Its value is > 10 nM.

**Q.** What about the “TUFM and TFAM protein levels by 24 h” value [6, 7] of the same compound?
**A.** Its value is “complete or near‐complete loss”.

**Q.** What about the “time at which TUFM and TFAM protein levels began to decline” value [6, 7] of the same compound?
**A.** Its value is ~ 6 h.

**Q.** And the HSP60 levels ([6]; MDA‐MB‐231 cells, 100 nM)?
**A.** The HSP60 levels was “significantly reduced in a time‐dependent manner”.
